Tests used:
[1] = riboflavin solutions, 40 W fluorescent light, 1350 foot-candles; cited from earlier work
[2] = compared with solubility in water; cited from earlier work
bovine cornea = details: compared to riboflavin in deionized water; cited from earlier work
[3] = Riboflavin titer determination before and after sterilization (stability); assay type: physicochemical; details: 1 atm, 121° C.
Source text: Riboflavin Titer Determination

[4] = ROS (superoxide anion) production on 366 nm irradiation, measured by reduction of Nitro Blue Tetrazolium to Formazan Blue (absorbance at 560 nm); details: at different light intensities
Experimental: The rational of the method is based on the fact that some organic molecules, both natural and synthetic, when irradiated with a particular wavelength, activate and, by interacting with oxygen, produce superoxide anion. […] As the amount of produced superoxide anion correlates with the amount of reduced NBT, from the absorption rate of reduced NBT is obtained the amount of ROS, thereby the ROS production can be expressed as function of irradiation time (minutes).
The ROS measurement is performed by a photoactivation chamber which enables to irradiate in controlled conditions the solutions of photoactivator and detector. The controlled parameters are emission specificity, uniform radiance, irradiation intensity, irradiation time.
Riboflavin-5′-(dihydrogen phosphate), monosodium salt, control sample, NBT control sample and reference sample were irradiated at different incident light intensity (99 μW/cm^2, 223 μW/cm^2, 633 μW/cm^2) (366 nm wavelength) in the photoactivation chamber, and absorbance at 560 nm is recorded. During the irradiation the temperature of the solutions was measured. […] Therefore reasonably the effect of temperature is marginal on these absorbance measures.
The two samples were irradiated in the photoactivation chamber by 99 μW/cm^2 incident light, and absorbance at 560 nm was recorded according to the above described procedure. […]

cornea = details: UVA irradiation at 370 nm, immediately after irradiation; cited from earlier work

Row | Compound | stabilizing effect on riboflavin (photodegradation) [1] | effect on riboflavin aqueous solubility [2] | effect on riboflavin permeability (bovine cornea) (bovine cornea) | also measured
1 | COC(=O)c1ccc(O)cc1 [methylparaben] | 86.4% |  |  | 
2 | O=S([O-])([O-])=S.[Na+].[Na+] [sodium thiosulfate] | 72.9% |  |  | 
3 | N[C@@H](CCC(=O)N[C@@H](CS)C(=O)NCC(=O)O)C(=O)O [reduced glutathione] | 26.2% |  |  | 
4 | ribonucleic acid | 59.3% |  |  | 
5 | 2-Hydroxypropyl-β-cyclodextrin |  | failed to enhance drug solubility at any significant level | no significant improvement in drug permeation | 
6 | NC(N)=S [thiourea] | 88.2% |  |  | 
7 | OC[C@H]1O[C@@H]2O[C@H]3[C@H](O)[C@@H](O)[C@@H](O[C@H]4[C@H](O)[C@@H](O)[C@@H](O[C@H]5[C@H](O)[C@@H](O)[C@@H](O[C@H]6[C@H](O)[C@@H](O)[C@@H](O[C@H]7[C@H](O)[C@@H](O)[C@@H](O[C@H]8[C@H](O)[C@@H](O)[C@@H](O[C@H]1[C@H](O)[C@H]2O)O[C@@H]8CO)O[C@@H]7CO)O[C@@H]6CO)O[C@@H]5CO)O[C@@H]4CO)O[C@@H]3CO [β-cyclodextrin] |  | increased riboflavin solubility | enhances riboflavin permeability | 
8 | CSCCC(N)C(=O)O (racemic) [DL-methionine] | 76.3% |  |  | 
9 | O=C([O-])CN(CCN(CC(=O)[O-])CC(=O)O)CC(=O)O.[Na+].[Na+] [disodium ethylenediamine (EDTA)] | 96.2% |  |  | 
10 | OC[C@H]1O[C@@H]2O[C@H]3[C@H](O)[C@@H](O)[C@@H](O[C@H]4[C@H](O)[C@@H](O)[C@@H](O[C@H]5[C@H](O)[C@@H](O)[C@@H](O[C@H]6[C@H](O)[C@@H](O)[C@@H](O[C@H]7[C@H](O)[C@@H](O)[C@@H](O[C@H]8[C@H](O)[C@@H](O)[C@@H](O[C@H]9[C@H](O)[C@@H](O)[C@@H](O[C@H]1[C@H](O)[C@H]2O)O[C@@H]9CO)O[C@@H]8CO)O[C@@H]7CO)O[C@@H]6CO)O[C@@H]5CO)O[C@@H]4CO)O[C@@H]3CO [γ-cyclodextrin] |  | failed to enhance drug solubility at any significant level | no significant improvement in drug permeation | 
11 | OC[C@H]1O[C@@H]2O[C@H]3[C@H](O)[C@@H](O)[C@@H](O[C@H]4[C@H](O)[C@@H](O)[C@@H](O[C@H]5[C@H](O)[C@@H](O)[C@@H](O[C@H]6[C@H](O)[C@@H](O)[C@@H](O[C@H]7[C@H](O)[C@@H](O)[C@@H](O[C@H]1[C@H](O)[C@H]2O)O[C@@H]7CO)O[C@@H]6CO)O[C@@H]5CO)O[C@@H]4CO)O[C@@H]3CO [α-cyclodextrin] |  | increased riboflavin solubility | no significant improvement in drug permeation | 
12 | Cc1cc2nc3c(=O)[nH]c(=O)nc-3n(C[C@H](O)[C@H](O)[C@H](O)COP(=O)([O-])O)c2cc1C.[Na+] [Riboflavin phosphate, Riboflavin-5-Phosphate Sodium] |  |  |  | Riboflavin % by weight ([3]; in presence of EDTA H4 (0.1% p/p), Tris (0.05% p/p) and phosphate buffer, sterilization 20 min): 67.0 % by weight; Riboflavin % by weight ([3]; in presence of EDTA H4 (0.1% p/p), Tris (0.05% p/p) and phosphate buffer, sterilization 30 min): 60.0 % by weight; Riboflavin % by weight ([3]; in presence of EDTA H4 (0.1% p/p), Tris (0.05% p/p) and phosphate buffer, sterilization 45 min): 50.0 % by weight; Riboflavin % by weight ([3]; in presence of borate buffer, sterilization 20 min): 68.0 % by weight; Riboflavin % by weight ([3]; in presence of distilled water, sterilization 20 min): 95.0 % by weight; Riboflavin % by weight ([3]; in presence of distilled water, sterilization 30 min): 92.0 % by weight; Riboflavin % by weight ([3]; in presence of distilled water, sterilization 45 min): 90.0 % by weight; Riboflavin % by weight ([3]; in presence of phosphate buffer, sterilization 20 min): 65.0 % by weight; Riboflavin % by weight ([3]; in presence of phosphate buffer, sterilization 30 min): 40.0 % by weight; Riboflavin % by weight ([3]; in presence of phosphate buffer, sterilization 45 min): 39.0 % by weight; change of the absorption on irradiation [4]: no appreciable change of the absorption; increase of the biomechanical rigidity of the cornea (cornea): about 300%

Reference: US10688196B2, “Cross-linking agents of collagen fibers for the use in the treatment of corneal ectasia” (SOOFT ITALIA SPA, priority 2015, dated 2020)
